Patent US8921388B2, “Dihydroxypyrimidine carbonic acid derivatives and their use in the treatment, amelioration or prevention of a viral disease” (priority 2012, dated 2014)

The compounds below were run on influenza A virus A/Aichi/2/68 (H3N2) on MDCK cells (assay: Cytopathic effect (CPE) assay). Settings: not given.
Assay type: cell-based

SMILES | CPE result in words
O=C(NCc1ccccc1)c1nc(CC2(c3ccccc3)CCCC2)nc(O)c1O | inactive
O=C(O)c1nc(Cc2ccccc2-c2ccccc2)nc(O)c1O | inactive
O=C(NCc1ccccc1)c1nc(Cc2ccccc2-c2ccccc2)nc(O)c1O | inactive
CNC(=O)c1nc(Cc2ccccc2-c2ccccc2)nc(O)c1O | inactive
O=C(O)c1nc(CC(c2ccccc2)c2ccccc2)nc(O)c1O | inactive
O=C(O)c1nc(Cc2ccc(F)cc2Br)nc(O)c1O | inactive
COC(=O)c1nc(Cc2ccccc2-c2ccccc2C)nc(O)c1O | inactive
CCOC(=O)c1nc(Cc2cncn2Cc2ccccc2)nc(O)c1O | inactive
COC(=O)c1nc(Cc2ccc(F)cc2Br)nc(O)c1O | inactive
NC(=O)c1nc(Cc2ccc(F)cc2Br)nc(O)c1O | inactive
CCOC(=O)c1nc(CC2CCCCC2)nc(O)c1O | inactive
COC(=O)c1nc(Cc2ccccc2Br)nc(O)c1OC(C)=O | inactive
CNC(=O)c1nc(Cc2ccccc2Br)nc(O)c1O | inactive
Cc1cccc(-c2ccccc2Cc2nc(O)c(O)c(C(=O)O)n2)c1 | inactive
Cc1ccc(C)c(-c2ccccc2Cc2nc(O)c(O)c(C(=O)O)n2)c1 | inactive
CNC(=O)c1nc(CC2CCCCC2)nc(O)c1O | inactive
CNC(=O)c1nc(Cc2ccccc2-c2cc(C)ccc2C)nc(O)c1O | inactive
O=C(NCc1ccc(Cl)cc1)c1nc(Cc2ccccc2Br)nc(O)c1O | inactive
O=C(O)c1nc(CC2CCCCC2)nc(O)c1O | inactive
O=C(O)c1nc(Cc2ccccc2Br)nc(O)c1O | inactive

SMILES | CPE result in words
Cc1ccccc1Cc1nc(O)c(O)c(C(=O)O)n1 | inactive
O=C(NCc1ccc(F)cc1)c1nc(Cc2ccccc2Br)nc(O)c1O | inactive
O=C(NCc1ccc(Cl)cc1)c1nc(Cc2ccccc2-c2ccccc2)nc(O)c1O | inactive
Cc1ccccc1-c1ccccc1Cc1nc(O)c(O)c(C(=O)O)n1 | inactive
O=C(O)c1nc(Cc2cc(C(F)(F)F)ccc2Br)nc(O)c1O | inactive
CNC(=O)c1nc(Cc2ccccc2-c2ccccc2)n(C)c(=O)c1O | inactive
Cn1c(CC2(c3ccccc3)CCCC2)nc(C(=O)O)c(O)c1=O | inactive
Cn1c(Cc2ccccc2-c2ccccc2)nc(C(=O)O)c(O)c1=O | inactive
Cn1c(Cc2ccccc2-c2ccccc2)nc(C(N)=O)c(O)c1=O | inactive
CC(C)NC(=O)c1nc(Cc2ccccc2-c2ccccc2)n(C)c(=O)c1O | inactive
CNC(=O)c1nc(NS(=O)(=O)Cc2cccc(C)c2)n(C)c(=O)c1O | inactive
COC(=O)c1nc(CC2CCCCC2)n(C)c(=O)c1O | inactive
CNC(=O)c1nc(NS(=O)(=O)Cc2ccc(C)cc2)n(C)c(=O)c1O | inactive
Cn1c(NS(=O)(=O)Cc2ccc(Cl)cc2)nc(C(=O)O)c(O)c1=O | inactive
O=C(O)c1c(O)c(=O)nc(Cc2ccccc2)n1Cc1ccccc1 | inactive
O=C(O)c1c(O)c(=O)nc(Cc2ccccc2Br)n1Cc1ccccc1 | inactive
CNC(=O)c1nc(NS(=O)(=O)Cc2ccccc2)n(C)c(=O)c1O | inactive
CNC(=O)c1nc(NS(=O)(=O)Cc2ccc(Cl)cc2)n(C)c(=O)c1O | inactive
COC(=O)c1c(O)c(=O)nc(Cc2ccccc2)n1Cc1ccccc1 | inactive

Same assay, conditions: Influenza A virus, H3N2, MDCK, in Canis lupus familiaris, 48 h

SMILES | IC50 [µM]
COC(=O)c1nc(CC2(c3ccccc3)CCCC2)nc(O)c1O | 12
NC(=O)c1nc(CC2(c3ccccc3)CCCC2)nc(O)c1O | 42
O=C(O)c1nc(CC2(c3ccccc3)CCCC2)nc(O)c1O | 49
CNC(=O)c1nc(CC2(c3ccccc3)CCCC2)nc(O)c1O | 22
CC(C)NC(=O)c1nc(Cc2ccccc2-c2ccccc2)nc(O)c1O | 23
O=C(NCc1ccc(F)cc1)c1nc(Cc2ccccc2-c2ccccc2)nc(O)c1O | 10
O=C(NCCc1ccccc1)c1nc(Cc2ccccc2-c2ccccc2)nc(O)c1O | 8
O=C(c1nc(Cc2ccccc2-c2ccccc2)nc(O)c1O)N1CCCC1 | 89
CCOC(=O)c1nc(Cc2ccccc2-c2cc(C)ccc2C)nc(O)c1O | 9.1
COC(=O)c1nc(Cc2ccccc2-c2cc(C)ccc2C)nc(O)c1O | 16
Cc1ccc(C)c(-c2ccccc2Cc2nc(O)c(O)c(C(=O)OC(C)(C)C)n2)c1 | 0.11
CNC(=O)c1nc(CC2(c3ccccc3)CCCC2)n(C)c(=O)c1O | 11
COC(=O)c1c(O)c(=O)nc(Cc2ccccc2Br)n1Cc1ccccc1 | 34
